Molecules are shown by their SMILES. Like-named read-outs stand apart in the source and are kept apart here.

The nature of data set [1]: Plasma pharmacokinetics of selumetinib and N-desmethyl selumetinib on day 1 of cycle 1. The data set is classed as in vivo, human. The text has this:
Additional predose samples were collected on days 1 and 14 of cycle 2 and on days 1 and 14 of cycle 5.
(§1) No formal hypothesis testing was planned.

Data set [2] concerns patients with advanced or metastatic solid tumors. Kind of data set: Dose-limiting toxicities during first 21 days, phase 1b MK-5618-001. The data set is classed as in vivo, human. The settings on record: selumetinib twice daily 2 weeks on/1 week off in combination with pembrolizumab.
Excerpt: At least 3 patients were enrolled at each dose level; the modified toxicity probability interval (mTPI) design, with a target dose-limiting toxicity (DLT) rate of ~30%, was used to identify a potential maximum tolerated dose. Dose escalation and de-escalation decisions were based on the mTPI design and were dependent on the number of patients enrolled and number of DLTs observed at the particular dose level (Online Resource 1). Dose finding was considered complete after 14 patients were enrolled at any of the tested dose levels and the decision was made to stay at that dose level.
as §1
Any treatment-related toxicity that causes the patient to discontinue treatment during cycle 1 […]
Cardiac disorders including
• Absolute decrease in left ventricular ejection fraction >10% compared with baseline and below the institution’s lower limit of normal • Grade ≥3 left ventricular systolic dysfunction
• Other cardiac disorders grade ≥3
Vascular disorders including
• Grade ≥3 hypertension requiring >1 drug or more intensive therapy […]
assessment. […] The occurrence of any of the toxicities listed in this table was considered a dose-limiting toxicity if assessed by the investigator to be possibly, probably , or definitely related

For the compound `O=C(NOCCO)c1cc2nc[nH]c2c(F)c1Nc1ccc(Br)cc1Cl` [N-Desmethyl selumetinib, N-desmethyl selumetinib], in data set [1] (human, in vivo), the “Observed t1/2, range across dose levels” value fell in the range of 3.07 to 3.94 h.
For `Cn1cnc2c(F)c(Nc3ccc(Br)cc3Cl)c(C(=O)NOCCO)cc21` [Selumetinib, selumetinib], the “Maximum tolerable dose level” value in data set [2] is “exceeds 125 mg”. For the same compound, the half-life in data set [1] (human, in vivo, day 1 of cycle 1, selumetinib 50-125 mg, read-out: Observed t1/2, range across dose levels) was 2.82 to 3.82 h; in data set [1] (human, in vivo, plasma, day 1 of cycle 1, Selumetinib 125 mg + Pembrolizumab 200 mg, n = 11, geometric mean (% geometric CV), read-out: t1/2 (converted)) it was 2.82 h. Moreover, in data set [1] (plasma, day 1 of cycle 1, Selumetinib 125 mg + Pembrolizumab 200 mg, n = 14, geometric mean (% geometric CV)), the “AUC0‒last” value is listed as 4430 (57.6) h · ng/mL.
